Data published in patent publication US20040067531A1, “Methods of modulating protein tyrosine kinase function with substituted indolinone compounds” (SUGEN, INC., priority 1997, published 2004).
pIC50: −log10 of the molar value. Read-outs that look alike come from different tables or passages of the source.

Assays:
FLK-1 receptor = target: T1, FLK-1 receptor (Mus musculus, UniProt P35918); assay: ELISA assay measuring the kinase activity of the FLK-1 receptor in cells engineered to express FLK-1; assay type: cell-based; details: NIH3T3 C7#3 FLK-1 expressing cells, VEGF stimulation, phosphotyrosine ELISA
T1 construct: expressed in transfected cells; host or cells: NIH3T3 C7#3
Experimental: An ELISA assay was conducted to measure the kinase activity of the FLK-1 receptor and more specifically, the inhibition or activation of TK activity on the FLK-1 receptor. Specifically, the following assay was conducted to measure kinase activity of the FLK-1 receptor in cells genetically engineered to express FLK-1.
(11) NIH3T3 C7#3 Cells (FLK-1 expressing cells);
The following protocol was used for conducting the assay:
1. Coat Corning 96-well elisa plates with 1.0 μg per well Cappel Anti-rabbit IgG antibody in 0.1 M Na2CO3 pH 9.6. Bring final volume to 150 μL per well. Coat plates overnight at 4° C. Plates can be kept up to two weeks when stored at 4° C.
2. Grow cells in Growth media (DMEM, supplemental with 2.0 mM L-Glutamine, 10% FBS) in suitable culture dishes until confluent at 37° C., 5% CO2.
3. Harvest cells by trypsinization and seed in Corning 25850 polystyrene 96-well roundbottom cell plates, 25.000 cells/well in 200 μL of growth media.
4. Grow cells at least one day at 37° C., 5% CO2.
5. Wash cells-with D-PBS 1×.
6. Add 200 μL/well of starvation media (DMEM, 2.0 mM 1-Glutamine, 0.1% FBS). Incubate overnight at 37° C., 5% CO2.
7. Dilute Compounds 1:20 in polypropylene 96 well plates using starvation media. Dilute dimethylsulfoxide 1:20 for use in control wells.
8. Remove starvation media from 96 well cell culture plates and add 162 μL of fresh starvation media to each well.
9. Add 18 μL of 1:20 diluted Compound dilution (from step 7) to each well plus the 1:20 dimethylsulfoxide dilution to the control wells (+/− VEGF), for a final dilution of 1:200 after cell stimulation. Final dimethylsulfoxide is 0.5%. Incubate the plate at 37° C., 5% CO2 for two hours.
10. Remove unbound antibody from ELISA plates by inverting plate to remove liquid. Wash 3 times with TBSW+0.5% ethanolamine, pH 7.0. Pat the plate on a paper towel to remove excess liquid and bubbles.
11. Block plates with TBSW+0.5% Ethanolamine, pH 7.0, 150 μL per well. Incubate plate thirty minutes while shaking on a microliter plate shaker.
12. Wash plate 3 times as described in step 10.
13. […] Bring final volume to 150 μL/well with TBSW+0.5% ethanolamine pH 7.0. Incubate plate for thirty minutes while shaking.
14. Add 180 μL starvation medium to the cells and stimulate cells with 20 μL/well 10.0 mM sodium ortho vanadate and 500 ng/mL VEGF (resulting in a final concentration of 1.0 mM sodium ortho vanadate and 50 ng/mL VEGF per well) for eight minutes at 37° C., 5% CO2. Negative control wells receive only starvation medium.
15. After eight minutes, media should be removed from the cells and washed one time with 200 μL/well PBS.
16. Lyse cells in 150 μL/well HNTG while shaking at room temperature for five minutes. HNTG formulation includes sodium ortho vanadate, sodium pyro phosphate and EDTA.
17. Wash ELISA plate three times as described in step 10.
18. Transfer cell lysates from the cell plate to ELISA plate and incubate while shaking for two hours. To transfer cell lysate pipette up and down while scrapping the wells.
19. Wash plate three times as described in step 10.
20. Incubate ELISA plate with 0.02 μg/well UB40 in TBSW+05% ethanolamine. Bring final volume to 150 μL/well. Incubate while shaking for 30 minutes.
21. Wash plate three times as described in step 10.
22. Incubate ELISA plate with 1:10,000 diluted EIA grade goat anti-mouse IgG conjugated horseradish peroxidase in TBSW+0.5% ethanolamine, pH 7.0. Bring final volume to 150 μL/well. Incubate while shaking for thirty minutes.
23. Wash plate as described in step 10.
24. Add 100 μL of ABTS/H2O2 solution to well. Incubate ten minutes while shaking.
25. Add 100 μL of 0.2 M HCl for 0.1 M HCl final to stop the color development reaction. Shake 1 minute at room temperature. Remove bubbles with slow stream of air and read the ELISA plate in an ELISA plate reader at 410 nm.
The IC50 values were measured for several of the compounds of the invention.

[1] = tested on: HUV-EC-C cells; aFGF (ECGF); assay: HUVEC-aFGF 3H-thymidine incorporation assay; assay type: cell-based, human
Experimental: The following protocol is used to measure a compound's activity against VEGF and aFGF, all of which are expressed by HUVEC cells.
Repeat the wash two more times with D-PBS, resuspend the cells in about 1 mL assay medium/15 cm^2 of tissue culture flask.
Add cells to 96-well flat-bottom plates at 100 μL/well or 0.8-1.0×10^4 cells/well; incubate ˜24h at 37° C., 5% CO^2.
Use the same assay medium as mentioned in day 0, step 2 above. Titrations are made by adding 90 μL/well of drug at 200 μM (4× the final well concentration) to the top well of a particular plate column. Since the stock drug concentration is usually 20 mM in DMSO, the 200 μM drug concentration contains 2% DMSO.
Therefore, diluent made up to 2% DMSO in assay medium (F12K+0.5% fetal bovine serum) is used as diluent for the drug titrations in order to dilute the drug but keep the DMSO concentration constant. Add this diluent to the remaining wells in the column at 60 μL/well. Take 60 μL from the 120 μL of 200 μM drug dilution in the top well of the column and mix with the 60 μL in the second well of the column. Take 60 μL from this well and mix with the 60 μL in the third well of the column, and so on until two-fold titrations are completed. When the next-to-the-last well is mixed, take 60 μL of the 120 μL in this well and discard it. Leave the last well with 60 μL of DMSO/media diluent as a non-drug-containing control. Make 9 columns of titrated drug, enough for triplicate wells each for 1) VEGF (obtained from Pepro Tech Inc., catalogue no. […] ECGF comes as a preparation with sodium heparin.
Transfer 50 μL/well of the drug dilutions to the 96-well assay plates containing the 0.8-1.0×10^4 cells/100 μL/well of the HUV-EC-C cells from day 0. and incubate ˜2 h at 37° C., 5% CO2.
In triplicate, add 50 μL/well of 80 μg/mL VEGF, 20 ng/mL ECGF, or media control to each drug condition. As with the drugs, the growth factor concentrations are 4× the desired final concentration. Use the assay media from day 0 step 2 to make the concentrations of growth factors.
Freeze plates overnight at 20° C.

[2] = tested on: FGF-induced BrdU incorporation; assay: FGF-induced BrdU incorporation assay; assay type: cell-based; details: read-out: FGF-Induced BrdU Incorp. IC50
Experimental: (§1) PDGF-, FGF-, and EGF-Induced BRDU Incorporation Assay
(§2) 1. Cells were seeded at 8000 cells/well in DMEM, 10% CS, 2 mM Gln in a 96 well plate. Cells were incubated overnight at 37° C. in 5% CO2.
(§3) 2. After 24 hours, the cells were washed with PBS, and then were serum starved in serum free medium (0% CS DMEM with 0.1% BSA) for 24 hours.
(§4) 3. On day 3, ligand (PDGF=3.8 nM, prepared in DMEM with 0.1% BSA) and test compounds were added to the cells simultaneously. The negative control wells received serum free DMEM with 0.1% BSA only; the positive control cells received the ligand (PDGF) but no test compound. Test compounds were prepared in serum free DMEM with ligand in a 96 well plate, and serially diluted for 7 test concentrations.
(§5) 4. After 20 hours of ligand activation, diluted BrdU labeling reagent (1:100 in DMEM, 0.1% BSA) was added and the cells were incubated with BrdU (final concentration=10 μM) for 1.5 hours.
(§6) 5. After incubation with labeling reagent, the medium was removed by decanting and tapping the inverted plate on a paper towel. FixDenat solution was added (50 μL/well) and the plates were incubated at room temperature for 45 minutes on a plate shaker.
(§7) 6. The FixDenat solution was thoroughly removed by decanting and tapping the inverted plate on a paper towel. Milk was added (5% dehydrated milk in PBS, 200 μL/well) as a blocking solution and the plate was incubated for 30 minutes at room temperature on a plate shaker.
(§8) 7. The blocking solution was removed by decanting and the wells were washed once with PBS. Anti-BrdU-POD solution (1:100 dilution in PBS, 1% BSA) was added (100 μL/well), and the plate was incubated for 90 minutes at room temperature on a plate shaker.
(§9) 8. The antibody conjugate was thoroughly removed by decanting and rinsing the wells 5 times with PBS, and the space was dried by inverting and tapping on a paper towel.
(§10) 9. TMB substrate solution was added (100 μL/well) and incubated for 20 minutes at room temperature on a plate shaker until color development was sufficient for photometric detection.
(§11) 10. The absorbance of the samples were measured at 410 nm (in “dual wavelength” mode with a filter reading at 490 nm, as a reference wavelength) on a Dynatech ELISA plate reader.
(§12) The IC50 values were measured for several of the compounds of the invention. These values are depicted in Table 10.

[3] = tested on: EGF-induced BrdU incorporation; assay: EGF-induced BrdU incorporation assay; assay type: cell-based; details: read-out: EGF-Induced BrdU Incorp. IC50
Experimental: as §1, §2, §3, §4, §5, §6, §7, §8, §9, §10, §11, §12

T1 sequence (P35918 20-1345): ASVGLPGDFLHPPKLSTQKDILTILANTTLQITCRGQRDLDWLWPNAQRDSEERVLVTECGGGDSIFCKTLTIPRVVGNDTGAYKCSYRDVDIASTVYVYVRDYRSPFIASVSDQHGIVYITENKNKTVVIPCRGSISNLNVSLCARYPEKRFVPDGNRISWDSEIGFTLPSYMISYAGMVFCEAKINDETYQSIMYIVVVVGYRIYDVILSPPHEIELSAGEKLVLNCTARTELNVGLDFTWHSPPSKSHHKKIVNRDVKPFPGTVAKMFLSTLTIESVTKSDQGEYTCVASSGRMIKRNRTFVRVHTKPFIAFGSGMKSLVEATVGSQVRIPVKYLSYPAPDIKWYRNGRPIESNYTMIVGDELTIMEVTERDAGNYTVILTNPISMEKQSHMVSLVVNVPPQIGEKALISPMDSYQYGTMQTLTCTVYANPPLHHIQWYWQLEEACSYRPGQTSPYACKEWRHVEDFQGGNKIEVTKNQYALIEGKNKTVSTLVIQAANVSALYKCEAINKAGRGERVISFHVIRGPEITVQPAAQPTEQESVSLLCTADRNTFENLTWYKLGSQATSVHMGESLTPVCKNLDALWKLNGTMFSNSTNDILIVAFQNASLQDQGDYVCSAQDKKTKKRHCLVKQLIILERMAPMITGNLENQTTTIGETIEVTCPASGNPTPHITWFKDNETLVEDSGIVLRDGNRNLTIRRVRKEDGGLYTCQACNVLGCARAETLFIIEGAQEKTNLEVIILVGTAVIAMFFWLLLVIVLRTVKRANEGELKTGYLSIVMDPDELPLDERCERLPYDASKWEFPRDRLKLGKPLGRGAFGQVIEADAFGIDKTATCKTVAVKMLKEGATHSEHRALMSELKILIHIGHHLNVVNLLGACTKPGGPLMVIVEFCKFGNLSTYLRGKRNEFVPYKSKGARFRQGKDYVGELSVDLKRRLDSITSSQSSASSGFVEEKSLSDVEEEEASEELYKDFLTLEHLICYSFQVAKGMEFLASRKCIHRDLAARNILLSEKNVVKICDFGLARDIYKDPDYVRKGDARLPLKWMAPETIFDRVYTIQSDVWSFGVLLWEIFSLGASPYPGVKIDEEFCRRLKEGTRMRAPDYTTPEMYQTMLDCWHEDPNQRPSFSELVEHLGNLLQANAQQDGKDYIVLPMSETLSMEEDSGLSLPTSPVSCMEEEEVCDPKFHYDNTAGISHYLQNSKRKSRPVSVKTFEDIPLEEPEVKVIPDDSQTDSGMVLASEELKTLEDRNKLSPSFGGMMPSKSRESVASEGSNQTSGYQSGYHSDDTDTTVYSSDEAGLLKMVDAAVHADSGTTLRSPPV

Compound | pIC50 (FLK-1 receptor) | pIC50 ([1]; Homo sapiens) | pIC50 [2] | pIC50 [3] | pIC50 [1] | pIC50 ([2]; FGF-induced) | pIC50 ([3]; EGF-induced)
O=C(O)CCc1c(C=C2C(=O)Nc3ccccc32)[nH]c2c1CCCC2 [IN-001, 3-[2-(2-Oxo-1,2-dihydro-indol-3-ylidenemethyl)-4,5,6,7-tetrahydro-1H-indol-3-yl]-propionic acid] | 7.21 | 7.80 | 4.74 | 4.02 | – | – | –
O=C(O)CCc1c(C=C2C(=O)Nc3ccc(Cl)cc32)[nH]c2c1CCCC2 [IN-002, 3-[2-(5-Chloro-2-oxo-1,2-dihydro-indol-3-ylidenemethyl)-4,5.6,7-tetrahydro-1H-indol-3-yl]-propionic acid] | 7.66 | – | – | – | 6.60 | 4.63 | 4.08
O=C(O)CCc1c(C=C2C(=O)Nc3ccc(Br)cc32)[nH]c2c1CCCC2 [IN-003, 3-[2-(5-Bromo-2-oxo-1,2-dihydro-indol-3-ylidenemethyl)-4,5,6,7-tetrahydro-1H-indol-3-yl]-propionic acid] | 7.54 | 7.12 | 4.80 | 4.11 | – | – | –
Cc1cccc2c1C(=Cc1[nH]c3c(c1CCC(=O)O)CCCC3)C(=O)N2 [IN-004, 3-[2-(4-Methyl-2-oxo-1,2-dihydro-indol-3-ylidenemethyl)-4,5,6,7-tetrahydro-1H-indol-3-yl]-propionic acid] | 7.64 | 8.60 | 4.57 | 4.28 | – | – | –
Cc1ccc2c(c1)C(=Cc1[nH]c3c(c1CCC(=O)O)CCCC3)C(=O)N2 [IN-005, 3-[2-(5-Methyl-2-oxo-1,2-dihydro-indol-3-ylidenemethyl)-4,5,6,7-tetrahydro-1H-indol-3-yl]-propionic acid] | 7.20 | 8.36 | 4.52 | 4.21 | – | – | –
COc1ccc2c(c1)NC(=O)C2=Cc1[nH]c2c(c1CCC(=O)O)CCCC2 [IN-007, 3-[2-(6-Methoxy-2-oxo-1,2-dihydro-indol-3-ylidenemethyl)-4,5,6,7-tetrahydro-1H-indol-3-yl]-propionic acid] | 6.09 | 5.80 | 4.38 | < 4.00 | – | – | –
CN(C)C(=O)CCc1c(C=C2C(=O)Nc3ccccc32)[nH]c2c1CCCC2 [IN-008, N,N-Dimethyl-3-[2-(2-oxo-1,2-dihydro-indol-3-ylidenemethyl)-4,5,6,7-tetrahydro-1H-indol-3-yl]-propionamide] | 6.30 | 5.66 | < 4.30 | < 4.30 | – | – | –
CN(C)CCCc1c(C=C2C(=O)Nc3ccccc32)[nH]c2c1CCCC2 [IN-009, 3-[3-(3-Dimethylamino-propyl)-4,5,6,7-tetrahydro-1H-indol-2-ylmethylene]-1,3-dihydro-indol-2-one] | 5.13 | 5.77 | < 4.30 | < 4.30 | – | – | –
NC(=O)CCc1c(C=C2C(=O)Nc3ccccc32)[nH]c2c1CCCC2 [IN-010, 3-[2-(2-Oxo-1,2-dihydro-indol-3-ylidenemethyl)-4,5,6,7-tetrahydro-1H-indol-3-yl]-propionamide] | 6.89 | 7.00 | < 4.30 | 4.02 | – | – | –
O=C1Nc2ccccc2C1=Cc1[nH]c2c(c1CCC(=O)N1CCOCC1)CCCC2 [IN-011, 3-[3-(3-Morpholin-4-yl-3-oxo-propyl)-4,5 6,7-tetrahydro-1H-indol-2-ylmethylene]-1,3-dihydro-indol-2-one] | > 6.11 | 5.04 | < 4.30 | 4.08 | – | – | –
CNC(=O)CCc1c(C=C2C(=O)Nc3ccccc32)[nH]c2c1CCCC2 [IN-012, N-Methyl-3-[2-(2-oxo-1,2-dihydro-indol-3-ylidenemethyl)-4,5,6,7-tetrahydro-1H-indol-3-yl]-propionamide] | > 6.11 | 6.80 | < 4.30 | 4.11 | – | – | –
O=C(CCc1c(C=C2C(=O)Nc3ccccc32)[nH]c2c1CCCC2)NCCN1CCOCC1 [IN-013, N-(2-Morpholin-4-yl-ethyl)-3-[2-(2-oxo-1,2-dihydro-indol-3-ylidenemethyl)-4,5,6,7-tetrahydro-1H-indol-3-yl]-propionamide] | 6.20 | 5.68 | < 4.30 | 4.28 | – | – | –
Cc1c[nH]c(C=C2C(=O)Nc3ccccc32)c1CCC(=O)O [IN-026, 3-[4-Methyl-2-(2-oxo-1,2-dihydro-indol-3-ylidenemethyl)-1H-pyrrol-3-yl]-propionic acid] | 6.70 | 5.96 | 4.60 | < 4.00 | – | – | –
Cc1c[nH]c(C=C2C(=O)Nc3ccc(Cl)cc32)c1CCC(=O)O [IN-027, 3-[2-(5-Chloro-2-oxo-1,2-dihydro-indol-3-ylidenemethyl)-4-methyl-1H-pyrrol-3-yl]-propionic acid] | 5.54 | 5.85 | – | < 4.30 | – | – | –
COc1ccc2c(c1)NC(=O)C2=Cc1[nH]cc(C)c1CCC(=O)O [IN-028, 3-[2-(6-Methoxy-2-oxo-1,2-dihydro-indol-3-ylidenemethyl)-4-methyl-1H-pyrrol-3-yl]-propionic acid] | 5.82 | 5.32 | < 4.30 | < 4.30 | – | – | –
Cc1c[nH]c(C=C2C(=O)Nc3ccc(Br)cc32)c1CCC(=O)O [IN-031, 3-[2-(5-Bromo-2-oxo-1,2-dihydro-indol-3-ylidenemethyl)-4-methyl-1H-pyrrol-3-yl]-propionic acid] | 6.46 | – | < 4.30 | < 4.30 | – | – | –
